Test results from patent US20170349879A1, “METHOD FOR CULTURING NORMAL CELLS AND ODONTOMA CELLS CONTAINED IN ORAL TISSUE” (CHIBA UNIVERSITY, priority 2014, published 2017).

Legend:
Format in all cases: cell-based, human
[1] = test system: amylase; test: Protein expression analysis of amylase by immunocytological fluorescent staining; conditions: salivary gland cells repeatedly subcultured in Rock inhibitor-containing medium; FIG. 3
Procedure: (i) Salivary gland cells cultured on glass slides were fixed by being treated for 10 minutes with 4% paraformaldehyde (WaKo). (ii) The fixed cells were washed three times with Tris-buffered saline (TBS: Sigma-Aldrich). (iii) The fixed cells were permeated with 0.5% Triton X-100 (WaKo) for 15 minutes. (iv) The fixed cells were reacted for 30 minutes with TBS containing 1% bovine serum albumin (Sigma-Aldrich). (v) The fixed cells were washed three times with TBS. (vi) A primary antibody (anti-goat amylase (Santa Cruz)) was mixed with TBS and reacted at a concentration of 1:200 at 4° C. for 16 hours. (vii) The cells were washed three times with TBS. (viii) Anti-goat Alexa Floor 647 (Millipore) was mixed with phosphate-buffered physiological saline and reacted at a concentration of 1:200 at room temperature for 1 hour. (ix) The cells were washed three times with TBS. (x) The cells were mounted with DAPI-containing mounting medium (DaKo). (xi) The cells were observed under a confocal microscope (FV10i-LIV: OLYMPUS).

[2] = test system: proliferating cell nuclear antigen (PCNA); test: Western blotting of PCNA (proliferation) in salivary gland cells; conditions: salivary gland cells in Rock inhibitor-containing medium; relative to α-tubulin; FIG. 6A
Procedure: (§1) Primary cultured salivary gland cells were cultured in a medium containing a Rock inhibitor and analyzed for their proliferation by Western blotting of proliferating cell nuclear antigen (PCNA: Santa Cruz) and for their apoptosis by Western blotting of caspase-3 (CST). For analysis of their immortalization, the expression of telomerase reverse transcriptase (TERT) was analyzed by quantitative RT-PCR assay.
(§2) The protein levels of PCNA and caspase-3 were measured by Western blotting. In addition, α-tubulin was used as an endogenous control.
(§3) (i) A protein extract was electrophoresed on a 4% to 12% polyacrylamide gel (Invitrogen).
(§4) (ii) The proteins were transferred onto a nitrocellulose membrane (Invitrogen).
(§5) (iii) The membrane was washed with Tris-buffered saline containing 0.1% Tween-20 (WaKo) (TBST), and then blocked with Blocking One (Nacalai Tesque, Inc., Japan) for 30 minutes. […]
(§6) (vi) The membrane was reacted at room temperature for 1 hour with horseradish peroxidase (HRP)-conjugated secondary antibody (Promega) and then treated with Super Signal West Pico Chemiluminescent substrate (Thermo) to develop signals for visualization purposes. The intensity of signals was quantified with a CS analyzer (ATTO) and expressed as a relative value in comparison with the protein level of α-tubulin measured as a control.

[3] = test system: caspase-3; test: Western blotting of caspase-3 (apoptosis) in salivary gland cells; conditions: salivary gland cells in Rock inhibitor-containing medium; relative to α-tubulin; FIG. 6A
Procedure: as §1, §2, §3, §4, §5, §6

[4] = test system: cancer-associated fibroblasts (CAFs); test: Cell culture of cancer-associated fibroblasts using a Rho kinase inhibitor (cell morphology); conditions: inhibitor-containing medium (10 μM); passage 7 with inhibitor vs passage 1 without; FIG. 14
Procedure: Odontoma cells, oral mucosal epithelial cells, fibroblasts, and cancer-associated fibroblasts (CAFs) (i) Patient-derived cells for use as a source material were taken in a required amount as described above. (ii) The cells were washed three times with phosphate-buffered physiological saline (PBS) (supplemented with 10 units/ml of penicillin and 100 μg/ml of streptomycin: Sigma-Aldrich). (iii) The cells were cut into small pieces with sterilized iris scissors and a surgical knife (No. 11). (iv) After addition of trypsin (TrypLE Select Enzyme, Gibco, Code No. A12177-01), the cells were shaken at 37° C. for 30 minutes. (v) The cells were mixed with Dulbecco's modified Eagle medium (DMEM: Sigma-Aldrich) (supplemented with 10% fetal bovine serum: Nichirei Bioscience Inc., Japan, 10 units/ml of penicillin and 100 μg/ml of streptomycin), and centrifugation (at 1000 rpm for 5 minutes) was repeated three times. (vi) The cells were mixed with DMEM (supplemented with 10% fetal bovine serum, 10 units/ml of penicillin, 100 μg/ml of streptomycin, 10 μM of the Rock kinase inhibitor and 0.3 μM of L-ascorbic acid 2-phosphate: Sigma-Aldrich) (DMEM+) and then seeded into collagen type I-coated cell culture dishes (IWAKI). (vii) The cells were washed with PBS once every three days to replace the above medium. (viii) The cultured cells were subcultured at 80% confluency. […]

[5] = test system: vascular endothelial cells; test: Cell culture of vascular endothelial cells using a Rho kinase inhibitor (cell morphology); conditions: inhibitor-containing medium (10 μM, EGM-2MV); passage 8 with inhibitor vs passage 0 without; FIG. 15
Procedure: Vascular Endothelial Cells (i) Patient-derived cells for use as a source material were taken in a required amount as described above. (ii) The cells were washed three times with phosphate-buffered physiological saline (PBS) (supplemented with 10 units/ml of penicillin and 100 μg/ml of streptomycin: Sigma-Aldrich). (iii) The cells were cut into small pieces with sterilized iris scissors and a surgical knife (No. 11). (iv) The cells were added to collagenase (032-10534: Wako) and shaken at 37° C. for 60 minutes. (v) The cells were diluted with an equal volume of fetal bovine serum (Nichirei Bioscience Inc., Japan) and centrifuged (at 1000 rpm for 10 minutes), and then centrifuged (at 1000 rpm for 5 minutes) three times with PBS, followed by addition of MACS buffer and centrifugation (at 1000 rpm for 5 minutes). (vi) Magnetic beads (Dynabeads CD31 Endotherial cell, 11155D: Invitrogen) were used to separate the cells. (vii) The cells were mixed with EGM-2MV (Lonza) (supplemented with 20% fetal bovine serum, 10 units/ml of penicillin, 100 μg/ml of streptomycin, and 10 μM of the Rock kinase inhibitor) and then seeded into fibronectin-coated cell culture dishes (IWAKI). (viii) The cells were washed with PBS once every three days to replace the above medium. (ix) The cultured cells were subcultured at 80% confluency. […]

protein expression of amylase [1]: significantly high
Structure (SMILES): CC(N)[C@H]1CC[C@H](C(=O)Nc2ccncc2)CC1 (stereo partly drawn) [Rock inhibitor, (R)-(+)-trans-N-(4-pyridyl)-4-(1-aminoethyl)-cyclohexanecarboxamide]
PCNA expression [2]: no difference was observed
caspase-3 expression [3]: no difference was observed
cell morphology of cancer-associated fibroblasts on repeated subculture [4]: maintain their cell morphology even when repeatedly subcultured
cell morphology of vascular endothelial cells on repeated subculture [5]: maintain their cell morphology even when repeatedly subcultured
